Tests used:
[1] = test system: brown skin surface lipids of the rats; assay: Rat skin browning test for antiseborrheic (sebosuppressive) effect, visual assessment of shaved back; assay type: in vivo, male Wistar rats; conditions: topical; for Evaluation of sebosuppressive effects, evaluation method 1 (examiners recognizing the treated side) / Evaluation of sebosuppressive effects, evaluation method 2 (difference between righthand and lefthand side) / Evaluation of sebosuppressive effects, evaluation method 3 (difference in intensity of brown shades vs control animals): once daily for a total of 9 days over 14 days; for Sebum reduction: points difference / points of control group
Excerpt: The antiseborrheic effect was closely studied using the animal tests described in the following: The test animals were male Wistar rats having a body weight of 220 to 230 g. The degree of browning on the shaved back of the rats was visually assessed. Browning is produced by the brown skin surface lipids of the rats. This test is based on the observation that young male and female rats washed with surfactant solution or with a lipid solvent and also male rats systematically treated with oestrogen have only the normal light, pick-colored skin after shaving. At the same time, only comparatively very small quantities of lipids can be extracted from shaved hairs. In order to assess effectiveness, the test substances in solution in alcohol were each brushed onto half the back of 6 rats. The other half was only treated with the solvent minus active substances. Over the test period of 14 days, the test substances were applied once daily for a total of 9 days. A group of 6 rats which remained completely untreated was used for further control. At the end of the test, the animals were shaved on their back and sides and were visually assessed independently by an examination panel of 6 people under double blind conditions. The first criterion evaluated was whether the majority of examiners correctly recognized the treated side, differentiation being carried out as follows: The second criterion evaluated was the difference between the righthand side and the lefthand side, each examiner having to award 1 point per animal on the following basis: Significant differences between the untreated and treated sides in the second method of evaluation indicated the local effectiveness of a substance. The third criterion evaluated was the difference in intensity between the shades of brown using the following scale: In the third method of evaluation, the total point differences are compared between the untreated control animals and the treated and untreated sides of the test animals, significant differences between the control animals and the treated side of the test animals again indicating the effectiveness of a substance. There is generally also a distinct difference between the untreated and treated sides of the same test animals. However, this difference is not always as clear as that between the control animals and the treated sides, for which there may be various reasons, such as mechanical transfer of substance from one side to the other or solvent influence. The following scheme was used for differentiating the effects according to evaluation methods 2 and 3: The sebum reduction is calculated from the points difference by working out the quotient between the points difference ΔP and the number of points for the control group Pk, and expressing the value obtained in percent. [formula] The benzyl alcohol derivatives were applied in the manner described in concentrations of 0.5 and 1.0% in alcohol/acetone (1:1).

[2] = test system: secretion of the sebaceous glands; conditions: known additives of U.S. Pat. No. 4,331,655 / German Patent Application 29 26 267; cited from earlier work

Row | Structure (SMILES) | Evaluation of sebosuppressive effects, evaluation method 1 (examiners recognizing the treated side) ([1]; 0.5% in alcohol/acetone (1:1)) | Evaluation of sebosuppressive effects, evaluation method 2 (difference between righthand and lefthand side) ([1]; 0.5% in alcohol/acetone (1:1)) | Evaluation of sebosuppressive effects, evaluation method 3 (difference in intensity of brown shades vs control animals) ([1]; 0.5% in alcohol/acetone (1:1)) | Sebum reduction ([1]; 0.5% in alcohol/acetone (1:1)) [%] | antiseborrheic effect [2] | Evaluation of sebosuppressive effects, evaluation method 1 (examiners recognizing the treated side) ([1]; 1.0% in alcohol/acetone (1:1)) | Evaluation of sebosuppressive effects, evaluation method 2 (difference between righthand and lefthand side) ([1]; 1.0% in alcohol/acetone (1:1)) | Evaluation of sebosuppressive effects, evaluation method 3 (difference in intensity of brown shades vs control animals) ([1]; 1.0% in alcohol/acetone (1:1)) | Sebum reduction ([1]; 1.0% in alcohol/acetone (1:1)) [%]
1 | CCCCCCCCc1ccc(CO)cc1 [A, 4-octylbenzyl alcohol] | ++ (100%) | ++ (very large (≥99.9% probability)) | ++ (very large (≥99.9% probability)) | 94 | – | – | – | – | –
2 | CCCCCCCCCCCCc1ccc(CO)cc1 [C, 4-dodecylbenzyl alcohol] | ++ (100%) | ++ (very large (≥99.9% probability)) | ++ (very large (≥99.9% probability)) | 32 | – | – | – | – | –
3 | CC(=O)OCC=C(C)CCC=C(C)CCC=C(C)C [3,7,11-tri:methyl-2,6,10-dodecatri:en-1-ol acetate] | – | – | – | – | only a very weak antiseborrheic effect | – | – | – | –
4 | OCc1ccccc1 [Benzyl alcohol] | – | – | – | – | – | 0 (≥50%) | 0 (minimal (<95% probability)) | 0 (minimal (<95% probability)) | 0
5 | OCc1ccc(-c2ccccc2)cc1 [E, 4-phenylbenzyl alcohol] | ++ (100%) | ++ (very large (≥99.9% probability)) | ++ (very large (≥99.9% probability)) | 72 | – | – | – | – | –
6 | CCCCCCCCCCOCc1ccc(CO)cc1 [D, 4-decyloxymethylbenzyl alcohol] | ++ (100%) | ++ (very large (≥99.9% probability)) | ++ (very large (≥99.9% probability)) | 82 | – | – | – | – | –
7 | CCOCC=C(C)CCC=C(C)CCC=C(C)C [3,7,11-tri:methyl-2,6,10-dodecatri:en-1-ol ethyl ether] | – | – | – | – | only a very weak antiseborrheic effect | – | – | – | –
8 | CC(C)(C)c1ccc(CO)cc1 [F, 4-tert.-butylbenzyl alcohol] | – | – | – | – | – | ++ (100%) | ++ (very large (≥99.9% probability)) | ++ (very large (≥99.9% probability)) | 56
9 | CCCCCCCCCCc1ccc(CO)cc1 [B, 4-decylbenzyl alcohol] | ++ (100%) | ++ (very large (≥99.9% probability)) | ++ (very large (≥99.9% probability)) | 95 | – | – | – | – | –
